Measurements published in patent US9650395B2, “Antibacterial compounds and methods for use” (PTC Therapeutics, Inc., priority 2011, dated 2017).
In brackets after ≈: the same amount, converted by molar mass.

Key:
[1] = system: Pseudomonas aeruginosa (P. aeruginosa) 27853; test: Antibacterial activity, MIC, P. aeruginosa 27853; format: cell-based; conditions: P. aeruginosa 27853; for MIC: Pseudomonas aeruginosa, read-out: MIC 27853
Source text: (§1) The antibacterial activity from a microbroth dilution method may be presented as the minimum inhibitory concentration (MIC in […]). The MIC value is the lowest concentration of a drug which prevents macroscopically visible bacterial growth under test conditions.
Antibacterial activity of test compounds against the Gram-negative bacterium Pseudomonas aeruginosa (P. aeruginosa) 27853 is shown in Table 5.

[2] = system: Gram-positive Staphylococcus aureus (S. aureus) 29213; test: Antibacterial activity, microbroth dilution MIC, S. aureus 29213; format: cell-based; conditions: S. aureus 29213, microbroth dilution; for MIC: Staphylococcus aureus, read-out: MIC, 29213
[3] = system: Acinetobacter baumannii (A. baumannii) BAA747; test: Antibacterial activity, MIC, A. baumannii BAA747; format: cell-based; conditions: A. baumannii BAA747; for MIC: Acinetobacter baumannii, read-out: MIC BAA747
[4] = system: control Gram-negative E. coli 25922 strain; test: Antibacterial activity, microbroth dilution MIC, E. coli 25922; format: cell-based, Escherichia coli; conditions: E. coli 25922, microbroth dilution; for MIC: Escherichia coli, read-out: MIC, 25922
[5] = system: Klebsiella pneumoniae (K. pneumoniae) 35657; test: Antibacterial activity, MIC, K. pneumoniae 35657; format: cell-based; conditions: for MIC: Klebsiella pneumoniae
[6] = system: quinolone resistant E. coli LZ3111; test: Antibacterial activity, MIC, quinolone resistant E. coli LZ3111; format: cell-based, Escherichia coli; conditions: for MIC: Escherichia coli, read-out: MIC, LZ3111
Source text: as §1
Mutations in these regions are known to confer a high level resistance to the quinolone class of antibiotics.

[7] = system: resistant A. baumannii MXX2240 (MDR clinical isolate); test: Antibacterial activity, MIC, resistant A. baumannii MXX2240; format: cell-based, Acinetobacter baumannii; conditions: resistant A. baumannii MMX2240, MDR clinical isolate; for MIC: Acinetobacter baumannii, read-out: MIC MMX2240
[8] = system: resistant K. pneumoniae MXX1232 (MDR clinical isolate); test: Antibacterial activity, MIC, resistant K. pneumoniae MXX1232; format: cell-based, Klebsiella pneumoniae; conditions: Klebsiella pneumoniae; resistant K. pneumoniae MMX1232, MDR clinical isolate; read-out: MIC MMX1232
[9] = system: super sensitive Gram-negative Escherichia coli (E. coli) BAS849; test: Antibacterial activity, microbroth dilution MIC, E. coli BAS849; format: cell-based; conditions: E. coli BAS849, microbroth dilution; for MIC: Escherichia coli, read-out: MIC, BAS849
[10] = system: Moraxella catarrhalis (M. catarrhalis) 25238; test: Antibacterial activity, MIC, M. catarrhalis 25238; format: cell-based; conditions: M. catarrhalis 25238; for MIC: Moraxella catarrhalis, read-out: MIC 25238
[11] = system: Haemophilus influenzae (H. influenzae) 49247; test: Antibacterial activity, MIC, H. influenzae 49247; format: cell-based; conditions: H. influenzae 49247; for MIC: Haemophilus influenzae, read-out: MIC 49247
Summary of the method: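 A microbroth dilution method gave the minimum inhibitory concentration for each compound against H. influenzae 49247, a Gram-negative bacterium. MIC means the smallest concentration of drug at which no macroscopically visible bacterial growth appears under the conditions of the test.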

[12] = system: E. coli ELZ4251 (MDR clinical isolate); test: Antibacterial activity, MIC, MDR E. coli ELZ4251; format: cell-based, Escherichia coli; conditions: E. coli ELZ4251, MDR clinical isolate; for MIC: Escherichia coli, read-out: MIC ELZ4251
[13] = system: E. coli ELZ4000 (MDR clinical isolate); test: Antibacterial activity, MIC, MDR E. coli ELZ4000; format: cell-based, Escherichia coli; conditions: E. coli ELZ4000, MDR clinical isolate; for MIC: Escherichia coli, read-out: MIC ELZ4000
[14] = system: Neisseria meningitidis (N. meningitidis) 13090; test: Antibacterial activity, MIC, N. meningitidis 13090; format: cell-based; conditions: N. meningitidis 13090; for MIC: Neisseria meningitidis, read-out: MIC 13090

| SMILES | MIC [1] | MIC [2] | MIC [3] | MIC [4] | MIC [6] | MIC [7] | MIC [8] | MIC [9] | MIC [10] | MIC [11] | MIC [13] | MIC [14] | MIC [12] | further results |
| --- | --- | --- | --- | --- | --- | --- | --- | --- | --- | --- | --- | --- | --- | --- |
| CCc1c(-c2ccc(N3CCC(c4ccccn4)C3)cc2)[nH]c(=O)c(C(=O)O)c1O (stereo not drawn) [Cpd 286, 5-ethyl-4-hydroxy-2-oxo-6-{4-[3-(pyridin-2-yl)pyrrolidin-1-yl]phenyl}-1,2-dihydropyridine-3-carboxylic acid] | 12.5 to 150 µg/mL (≈ 30.8 to 370 µM) | 1 to 3.5 µg/mL (≈ 2.47 to 8.63 µM) | 3.5 to 12.5 µg/mL (≈ 8.63 to 30.8 µM) | 1 to 3.5 µg/mL (≈ 2.47 to 8.63 µM) | 12.5 to 150 µg/mL (≈ 30.8 to 370 µM) | 12.5 to 150 µg/mL (≈ 30.8 to 370 µM) | 12.5 to 150 µg/mL (≈ 30.8 to 370 µM) | < 1 µg/mL |  |  |  |  |  | MIC [5]: 12.5 to 150 µg/mL (≈ 30.8 to 370 µM) |
| CCc1c(-c2ccc(N3C[C@@H]4[C@@H](N)[C@@H]4C3)cc2)[nH]c(=O)c(C(=O)O)c1O [Cpd 285, 6-{4-[(1R,5S,6s)-6-amino-3-azabicyclo[3.1.0]hex-3-yl]phenyl}-5-ethyl-4-hydroxy-2-oxo-1,2-dihydropyridine-3-carboxylic acid] |  |  |  |  |  |  |  |  | 1 to 3.5 µg/mL (≈ 2.81 to 9.85 µM) | < 1 µg/mL | 12.5 to 150 µg/mL (≈ 35.2 to 422 µM) | < 1 µg/mL |  | MIC 27853 [1]: ** (an MIC value between >3.5 μg/mL and ≦12.5 μg/mL is indicated by two stars (**)); MIC ELZ4251 [12]: ** (an MIC value between >3.5 μg/mL and ≦12.5 μg/mL is indicated by two stars (**)); MIC 35657 [5]: *** (an MIC value between >1.0 μg/mL and ≦3.5 μg/mL is indicated by three stars (***)); MIC MMX2240 [7]: * (an MIC value between >12.5 μg/mL and ≦150 μg/mL is indicated by a single star (*)) |
| CCc1c(-c2ccc(OC)cc2)[nH]c(=O)c(C(=O)O)c1O [Cpd 25, 5-ethyl-4-hydroxy-6-(4-methoxyphenyl)-2-oxo-1,2-dihydropyridine-3-carboxylic acid] |  | 12.5 to 150 µg/mL (≈ 43.2 to 519 µM) | 3.5 to 12.5 µg/mL (≈ 12.1 to 43.2 µM) | 3.5 to 12.5 µg/mL (≈ 12.1 to 43.2 µM) | 12.5 to 150 µg/mL (≈ 43.2 to 519 µM) | 1 to 3.5 µg/mL (≈ 3.46 to 12.1 µM) | 12.5 to 150 µg/mL (≈ 43.2 to 519 µM) | < 1 µg/mL |  |  | 12.5 to 150 µg/mL (≈ 43.2 to 519 µM) |  | 12.5 to 150 µg/mL (≈ 43.2 to 519 µM) |  |
| CN[C@@H]1CCC[C@@H]2CN(c3ccc(-c4[nH]c(=O)c(C(=O)O)c(O)c4C)cc3)C[C@@H]21.Cl [Cpd 260, 4-hydroxy-5-methyl-6-{4-[(3aR,4R,7aS)-4-(methylamino)octahydro-2H-isoiridol-2-yl]phenyl}-2-oxo-1,2-dihydropyridine-3-carboxylic acid hydrochloride] |  |  |  |  |  |  |  |  |  |  |  |  |  | MIC 25238 [10]: ** (an MIC value between >3.5 μg/mL and ≦12.5 μg/mL is indicated by two stars (**)); MIC 27853 [1]: * (an MIC value between >12.5 μg/mL and ≦150 μg/mL is indicated by a single star (*)); MIC, 29213 [2]: *** (an MIC value between >1.0 μg/mL and ≦3.5 μg/mL is indicated by three stars (***)); MIC BAA747 [3]: * (an MIC value between >12.5 μg/mL and ≦150 μg/mL is indicated by a single star (*)); MIC 49247 [11]: * (an MIC value between >12.5 μg/mL and ≦150 μg/mL is indicated by a single star (*)); MIC ELZ4251 [12]: *** (an MIC value between >1.0 μg/mL and ≦3.5 μg/mL is indicated by three stars (***)); MIC, 25922 [4]: ** (an MIC value between >3.5 μg/mL and ≦12.5 μg/mL is indicated by two stars (**)); MIC ELZ4000 [13]: ** (an MIC value between >3.5 μg/mL and ≦12.5 μg/mL is indicated by two stars (**)); MIC 35657 [5]: ** (an MIC value between >3.5 μg/mL and ≦12.5 μg/mL is indicated by two stars (**)); MIC, LZ3111 ([6]; quinolone resistant E. coli LZ3111): **** (an MIC value of ≦1.0 μg/mL is indicated by four stars (****)); MIC 13090 [14]: *** (an MIC value between >1.0 μg/mL and ≦3.5 μg/mL is indicated by three stars (***)); MIC, BAS849 [9]: ** (an MIC value between >3.5 μg/mL and ≦12.5 μg/mL is indicated by two stars (**)) |
| CCc1cc(C(=O)O)c(=O)[nH]c1-c1ccc(N(C)C)c(F)c1 [Cpd 93, 6-[4-(dimethylamino)-3-fluorophenyl]-5-ethyl-2-oxo-1,2-dihydropyridine-3-carboxylic acid] | 12.5 to 150 µg/mL (≈ 41.1 to 493 µM) | 12.5 to 150 µg/mL (≈ 41.1 to 493 µM) | 12.5 to 150 µg/mL (≈ 41.1 to 493 µM) | 12.5 to 150 µg/mL (≈ 41.1 to 493 µM) | 12.5 to 150 µg/mL (≈ 41.1 to 493 µM) |  |  | < 1 µg/mL | < 1 µg/mL | < 1 µg/mL | 12.5 to 150 µg/mL (≈ 41.1 to 493 µM) | < 1 µg/mL | 12.5 to 150 µg/mL (≈ 41.1 to 493 µM) | MIC [5]: 12.5 to 150 µg/mL (≈ 41.1 to 493 µM) |
| CCc1c(-c2ccc(N3CC[C@@H](O)C3)cc2)[nH]c(=O)c(C(=O)O)c1O [Cpd 124, 5-ethyl-4-hydroxy-6-{4-[(3R)-3-hydroxypyrrolidin-1-yl]phenyl}-2-oxo-1,2-dihydropyridine-3-carboxylic acid] |  | 1 to 3.5 µg/mL (≈ 2.9 to 10.2 µM) | < 1 µg/mL | < 1 µg/mL | 12.5 to 150 µg/mL (≈ 36.3 to 436 µM) | 12.5 to 150 µg/mL (≈ 36.3 to 436 µM) | 12.5 to 150 µg/mL (≈ 36.3 to 436 µM) | < 1 µg/mL | < 1 µg/mL | < 1 µg/mL | 12.5 to 150 µg/mL (≈ 36.3 to 436 µM) | < 1 µg/mL | 12.5 to 150 µg/mL (≈ 36.3 to 436 µM) |  |
| CCc1c(-c2ccc(N3CCC(O)C3)cc2)[nH]c(=O)c(C(=O)O)c1O (stereo not drawn) [Cpd 126, 5-ethyl-4-hydroxy-6-[4-(3-hydroxypyrrolidin-1-yl)phenyl]-2-oxo-1,2-dihydropyridine-3-carboxylic acid] | 3.5 to 12.5 µg/mL (≈ 10.2 to 36.3 µM) | 1 to 3.5 µg/mL (≈ 2.9 to 10.2 µM) | < 1 µg/mL | < 1 µg/mL | 12.5 to 150 µg/mL (≈ 36.3 to 436 µM) | 12.5 to 150 µg/mL (≈ 36.3 to 436 µM) | 12.5 to 150 µg/mL (≈ 36.3 to 436 µM) | < 1 µg/mL | < 1 µg/mL | < 1 µg/mL | 12.5 to 150 µg/mL (≈ 36.3 to 436 µM) | < 1 µg/mL | 12.5 to 150 µg/mL (≈ 36.3 to 436 µM) |  |
